The values below are quoted from earlier work in paper PMC10872542 (Structure (London, England : 1993), 2023).

SMILES strings stand for the structures.

The data set relates to TRPV5. The conditions noted are these: read-out: IC50 of TRPV5 inhibition.
Take `CC(OC(=O)CC1Sc2ccccc2NC1=O)c1nc2scc(-c3ccccc3)c2c(=O)[nH]1` (stereo not drawn) [ZINC9155420]: the IC50 was ~3000 nM.

As to `O=C(CCN1C(=O)COc2ccccc21)OCc1nc2scc(-c3ccccc3)c2c(=O)[nH]1` [ZINC17988990], the concentration for half-maximal inhibition (IC50) is ~100 nM.

Regarding `Cl.Cl.Cl.Cl.Cl.Cl.N.N.N.N.N.N.N.N.N.N.N.N.N.N.[O-2].[O-2].[Ru+3].[Ru+3].[Ru+4]` [ruthenium red], the IC50 was ~100 nM.

By IC50 is commonly meant the midpoint of a concentration-inhibition curve.
